# PubChem BioAssay (NCI)
# Several values for one entry are separate records, joined by “and”; a condition that tells them apart may be missing. Equal values may be shown once.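 Assay format: 96-well plates, 48-hour exposure. GI50 is the concentration that inhibits growth by half. TGI is the concentration that stops growth completely.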
# Assays:
# Assay in all cases: DTP human tumour cell line panel, 48 h
# NCI-H460 lung = test system: NCI-H460 lung
# HS 578T breast = test system: HS 578T breast
# SNB-75 CNS = test system: SNB-75 CNS
# EKVX NSCLC = test system: EKVX NSCLC
# COLO 205 colon = test system: COLO 205 colon
# SK-MEL-2 melanoma = test system: SK-MEL-2 melanoma
# SNB-19 CNS = test system: SNB-19 CNS
# UACC-257 melanoma = test system: UACC-257 melanoma
# MDA-MB-231 breast = test system: MDA-MB-231 breast
# K-562 leukemia = test system: K-562 leukemia
# TK-10 renal = test system: TK-10 renal
# HCT-116 colon = test system: HCT-116 colon
# HT29 colon = test system: HT29 colon
# OVCAR-4 ovarian = test system: OVCAR-4 ovarian
# SF-268 CNS = test system: SF-268 CNS
# NCI/ADR-RES ovarian = test system: NCI/ADR-RES ovarian
# SF-295 CNS = test system: SF-295 CNS
# SW-620 colon = test system: SW-620 colon
# MDA-N = test system: MDA-N
# MDA-MB-435 = test system: MDA-MB-435
# NCI-H522 lung = test system: NCI-H522 lung
# PC-3 prostate = test system: PC-3 prostate
# KM12 colon = test system: KM12 colon
# ACHN renal = test system: ACHN renal
# A549 NSCLC = test system: A549 NSCLC
# OVCAR-5 ovarian = test system: OVCAR-5 ovarian
# NCI-H226 lung = test system: NCI-H226 lung
# BT-549 breast = test system: BT-549 breast
# OVCAR-3 ovarian = test system: OVCAR-3 ovarian
# CCRF-CEM leukemia = test system: CCRF-CEM leukemia
# CAKI-1 renal = test system: CAKI-1 renal
# RPMI-8226 leukemia = test system: RPMI-8226 leukemia
# HOP-92 NSCLC = test system: HOP-92 NSCLC
# SN12C renal = test system: SN12C renal
# DU-145 prostate = test system: DU-145 prostate
# UO-31 renal = test system: UO-31 renal
# M14 melanoma = test system: M14 melanoma
# HCT-15 colon = test system: HCT-15 colon
# SK-OV-3 ovarian = test system: SK-OV-3 ovarian
# SK-MEL-28 melanoma = test system: SK-MEL-28 melanoma
# SK-MEL-5 melanoma = test system: SK-MEL-5 melanoma
# MOLT-4 leukemia = test system: MOLT-4 leukemia
# UACC-62 melanoma = test system: UACC-62 melanoma
# U251 CNS = test system: U251 CNS
# NCI-H23 lung = test system: NCI-H23 lung
# OVCAR-8 ovarian = test system: OVCAR-8 ovarian
# SR leukemia = test system: SR leukemia
# RXF 393 renal = test system: RXF 393 renal
# 786-0 renal = test system: 786-0 renal
# HCC-2998 colon = test system: HCC-2998 colon
# HOP-62 NSCLC = test system: HOP-62 NSCLC
# IGROV1 ovarian = test system: IGROV1 ovarian
# MCF7 breast = test system: MCF7 breast
# LOX IMVI melanoma = test system: LOX IMVI melanoma
# SF-539 CNS = test system: SF-539 CNS
# A498 renal = test system: A498 renal
# MALME-3M melanoma = test system: MALME-3M melanoma
compound,measurement,setting,value
CCc1c2c(nc3ccc(O)cc13)-c1cc3c(c(=O)n1C2)COC(=O)[C@]3(O)CC,TGI,NCI-H460 lung,147 nM and 536 nM
same,GI50,HS 578T breast,4.12 µM
same,TGI,HS 578T breast,> 100 µM
same,TGI,SNB-75 CNS,351 nM
same,GI50,EKVX NSCLC,545 nM
same,TGI,EKVX NSCLC,> 100 µM
same,GI50,COLO 205 colon,71.1 nM
same,TGI,COLO 205 colon,12.2 µM
same,TGI,SK-MEL-2 melanoma,282 nM
same,TGI,SNB-19 CNS,> 12.7 µM
same,GI50,UACC-257 melanoma,83.8 nM
same,GI50,MDA-MB-231 breast,524 nM
same,TGI,MDA-MB-231 breast,> 100 µM
same,TGI,K-562 leukemia,> 100 µM
same,GI50,TK-10 renal,606 nM
same,TGI,HCT-116 colon,> 36.1 µM
same,TGI,HT29 colon,526 nM
same,GI50,OVCAR-4 ovarian,279 nM
same,TGI,SF-268 CNS,3.68 µM
same,TGI,NCI/ADR-RES ovarian,6.45 µM
same,TGI,SF-295 CNS,50.3 nM
same,TGI,SW-620 colon,> 100 µM
same,GI50,MDA-N,1920 nM
same,TGI,MDA-N,> 100 µM
same,TGI,MDA-MB-435,292 nM and 1570 nM
same,TGI,NCI-H522 lung,885 nM and 317 nM
same,GI50,PC-3 prostate,85.7 nM
same,TGI,PC-3 prostate,> 100 µM
same,GI50,KM12 colon,78.4 nM
same,TGI,KM12 colon,2640 nM
same,TGI,ACHN renal,32.2 nM and 123 nM
same,GI50,A549 NSCLC,< 1 nM
same,TGI,A549 NSCLC,8.34 µM
same,GI50,OVCAR-5 ovarian,246 nM
same,TGI,OVCAR-5 ovarian,4.56 µM
same,TGI,NCI-H226 lung,10.9 nM and 89.2 nM
same,GI50,BT-549 breast,10.3 nM
same,TGI,BT-549 breast,293 nM
same,GI50,OVCAR-3 ovarian,64.9 nM
same,TGI,OVCAR-3 ovarian,2550 nM and 1670 nM
same,TGI,CCRF-CEM leukemia,> 100 µM
same,TGI,CAKI-1 renal,28.6 nM and 98.5 nM
same,GI50,RPMI-8226 leukemia,< 1 nM
same,GI50,HOP-92 NSCLC,< 1 nM
same,TGI,SN12C renal,> 100 µM
same,TGI,DU-145 prostate,3.1 µM
same,TGI,UO-31 renal,15.2 nM and 115 nM
same,TGI,M14 melanoma,488 nM and 156 nM
same,GI50,HCT-15 colon,206 nM
same,TGI,HCT-15 colon,> 100 µM
same,GI50,SK-OV-3 ovarian,< 1 nM
same,TGI,SK-OV-3 ovarian,342 nM and 792 nM
same,GI50,SK-MEL-28 melanoma,246 nM
same,TGI,SK-MEL-28 melanoma,> 19.7 µM
CC(=O)OC1C[C@@H](C)C2(C[C@H](O)c3ccoc3)C(=O)OC[C@]13C2CCC(O)C31CO1 (stereo partly drawn),TGI,SK-MEL-5 melanoma,> 100 µM
same,TGI,NCI-H460 lung,> 100000 nM
same,TGI,HS 578T breast,> 100 µM
same,TGI,SNB-75 CNS,> 100000 nM
same,TGI,MOLT-4 leukemia,> 100 µM
same,TGI,COLO 205 colon,> 100 µM
same,TGI,SK-MEL-2 melanoma,> 100000 nM
same,TGI,UACC-62 melanoma,> 100 µM
same,TGI,U251 CNS,> 100 µM
same,TGI,NCI-H23 lung,> 100 µM
same,TGI,OVCAR-8 ovarian,> 100 µM
same,TGI,SNB-19 CNS,> 100 µM
same,TGI,UACC-257 melanoma,> 100 µM
same,TGI,MDA-MB-231 breast,> 100 µM
same,TGI,K-562 leukemia,> 100 µM
same,TGI,TK-10 renal,> 100 µM
same,TGI,SR leukemia,> 100 µM
same,TGI,RXF 393 renal,> 100 µM
same,TGI,HCT-116 colon,> 100 µM
same,TGI,HT29 colon,> 100000 nM
same,TGI,OVCAR-4 ovarian,> 100 µM
same,TGI,SF-268 CNS,> 100 µM
same,TGI,NCI/ADR-RES ovarian,> 100 µM
same,TGI,SF-295 CNS,> 100000 nM
same,TGI,786-0 renal,> 100 µM
same,TGI,HCC-2998 colon,> 100 µM
same,TGI,MDA-N,> 100 µM
same,TGI,MDA-MB-435,> 100000 nM
same,TGI,HOP-62 NSCLC,> 100 µM
same,TGI,IGROV1 ovarian,> 100 µM
same,TGI,NCI-H522 lung,> 100000 nM
same,TGI,PC-3 prostate,> 100 µM
same,TGI,MCF7 breast,> 100 µM
same,TGI,KM12 colon,> 100000 nM
same,TGI,ACHN renal,> 100000 nM
same,TGI,A549 NSCLC,> 100 µM
same,TGI,LOX IMVI melanoma,> 100 µM
same,TGI,OVCAR-5 ovarian,> 100 µM
same,TGI,NCI-H226 lung,> 100000 nM
same,TGI,BT-549 breast,> 100000 nM
same,TGI,OVCAR-3 ovarian,> 100000 nM
same,TGI,CCRF-CEM leukemia,> 100 µM
same,TGI,CAKI-1 renal,> 100000 nM
same,TGI,RPMI-8226 leukemia,> 100 µM
same,TGI,HOP-92 NSCLC,> 100 µM
same,TGI,SN12C renal,> 100 µM
same,TGI,DU-145 prostate,> 100 µM
same,TGI,UO-31 renal,> 100000 nM
same,TGI,M14 melanoma,> 100000 nM
same,TGI,SF-539 CNS,> 100 µM
same,TGI,HCT-15 colon,> 100 µM
same,TGI,A498 renal,> 100 µM
same,TGI,MALME-3M melanoma,> 100 µM
same,TGI,SK-MEL-28 melanoma,> 100 µM
